Several values for one entry are separate records, joined by “and”; a condition that tells them apart may be missing. Equal values may be shown once. Read-outs that look alike come from different tables or passages of the source.
Experiments:
[1] = target: T1, RIPK1 (Homo sapiens, UniProt Q13546); assay: RIPK1 kinase assay, 33P-labeled ATP assay at Eurofins; type: biochemical
T1 sequence (Q13546 1-671): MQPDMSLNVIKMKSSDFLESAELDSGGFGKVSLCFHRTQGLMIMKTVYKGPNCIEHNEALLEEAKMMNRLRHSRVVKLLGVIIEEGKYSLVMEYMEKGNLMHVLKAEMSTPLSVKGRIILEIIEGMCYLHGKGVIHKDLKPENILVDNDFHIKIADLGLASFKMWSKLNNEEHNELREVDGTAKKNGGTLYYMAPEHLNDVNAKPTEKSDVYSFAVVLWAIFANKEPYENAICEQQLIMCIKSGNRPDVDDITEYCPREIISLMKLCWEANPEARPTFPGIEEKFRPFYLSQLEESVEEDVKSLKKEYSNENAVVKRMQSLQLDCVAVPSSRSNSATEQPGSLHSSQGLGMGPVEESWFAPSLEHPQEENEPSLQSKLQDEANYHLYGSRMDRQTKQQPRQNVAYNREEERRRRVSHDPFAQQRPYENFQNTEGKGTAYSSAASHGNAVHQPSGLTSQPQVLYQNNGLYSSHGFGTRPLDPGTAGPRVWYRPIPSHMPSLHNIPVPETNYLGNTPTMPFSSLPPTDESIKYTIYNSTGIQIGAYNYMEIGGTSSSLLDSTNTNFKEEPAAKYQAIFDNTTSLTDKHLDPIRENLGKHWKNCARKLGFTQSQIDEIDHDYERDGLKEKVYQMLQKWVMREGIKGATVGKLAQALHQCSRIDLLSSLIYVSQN
Experimental: (§1) In vitro kinase activity assays were conducted through the Kinase Profiling Services provided by Eurofins (Eurofins, France). The protocol for the RIPK1 assay is briefly described as follows (Protocols for other kinases are very similar and can be found in http://www.eurofins.com/pharmadiscovery). RIPK1 kinase was incubated with the test compound in assay buffer containing 8 mM MOPS (pH 7.0), 0.2 mM EDTA, 250 μM […], 10 mM magnesium acetate, and 10 μM [γ-33P]-ATP for 15 min at room temperature. The reaction was initiated by the addition of the Mg/ATP mixture. After incubation for 40 min at room temperature, and the reaction was stopped by the addition of 3% phosphoric acid. A 10 μL portion of the reaction mixture was then spotted onto a P30 filter mat and washed four times for 4 min in 0.425% phosphoric acid and once in methanol prior to drying and scintillation counting.

[2] = test system: HT29 cells; assay: TSZ-induced HT29 cell necroptosis model (CCK8); type: cell-based; settings: Homo sapiens, HT-29
Experimental: (§2) Cell necroptosis protection assays were performed in 96-well cell culture plates. Cells were plated in each well and cultured at 37 °C overnight. […] The cell survival rate was determined using a CCK8 cell viability assay kit and CLARIOstar (v5.61). […] All experiments were performed at least two times, and each EC50 value was expressed as mean ± standard deviation (SD).

[3] = test system: HT29-vector cells; assay: TSZ-induced necroptosis in HT29-vector cells (CCK8); type: cell-based
Experimental: as §2
The lentiCRISPRv2 vector targeting RIPK1 (sgRNA, 5’- […]-3’) was constructed by the Azenta company. HEK 293 T cells were transfected with lentiCRISPRv2 targeting RIPK1 and empty vector using Hieff Trans^TM Liposomal Transfection Reagent (Yeasen), respectively. […] The concentrated viruses were added to HT29 cells along with 8 μg/mL of polybrene (Yeasen) to enhance transfection efficiency. The infection assay was repeated in the next day under the same conditions. Finally, HT29 cells were screened with 3 μg/mL puromycin. Western blot analysis was used to confirm the RIPK1 deletion.

[4] = test system: IL-1β; assay: TNFα-induced SIRS mouse model: serum IL-1β (ELISA); type: in vivo, C57BL/6 female mice; settings: 40 mg/kg i.p.
Experimental: (§3) The body temperatures of the mice were continuously monitored until 6 h after TNFα administration. At 6 h after TNFα injection, four mice in each group were killed at random, and the serums, heart, liver, spleen, lung, and kidney tissues were collected for analysis.
(§4) In the TNFα-induced SIRS model, at 6 h after TNFα injection, four mice in each group were killed at random, and the serums were collected, the serum concentrations of IL-1β and IL-6 were measured using ELISA kits (Neobioscience Technology) according to manufacturer’s instructions. […] The supernatant was collected by sequential centrifugation at 500 × g for 10 min and 3000 × g for 10 min. The concentrations of cytokines TNFα, IL-6, and IL-1β were measured using ELISA kits (Neobioscience Technology).

[5] = test system: IL-6; assay: TNFα-induced SIRS mouse model: serum IL-6 (ELISA); type: in vivo, C57BL/6 female mice
Experimental: as §3, §4

[6] = test system: TNFα; assay: DSS-induced IBD mouse model: TNFα in cultured colon supernatant (ELISA); type: in vivo, C57BL/6 female mice
Experimental: (§5) DSS (3% w/v) was administered in drinking water ad libitum for 7 d (from day 0 to day 7). DSS solution was replaced three times on day 2, day 4, and day 6. […] Three mice in each group were killed at random on day 7, and distal colon tissues were collected for analysis. The mice weight and survival rate were recorded daily.
as §4

[7] = test system: IL-6; assay: DSS-induced IBD mouse model: IL-6 in cultured colon supernatant (ELISA); type: in vivo, C57BL/6 female mice
Experimental: as §5, §4

[8] = target: RIPK3 (Homo sapiens, UniProt Q9Y572); assay: Kinase IC50 assay (Eurofins); type: biochemical
Sequence of RIPK3 (Q9Y572 whole entry): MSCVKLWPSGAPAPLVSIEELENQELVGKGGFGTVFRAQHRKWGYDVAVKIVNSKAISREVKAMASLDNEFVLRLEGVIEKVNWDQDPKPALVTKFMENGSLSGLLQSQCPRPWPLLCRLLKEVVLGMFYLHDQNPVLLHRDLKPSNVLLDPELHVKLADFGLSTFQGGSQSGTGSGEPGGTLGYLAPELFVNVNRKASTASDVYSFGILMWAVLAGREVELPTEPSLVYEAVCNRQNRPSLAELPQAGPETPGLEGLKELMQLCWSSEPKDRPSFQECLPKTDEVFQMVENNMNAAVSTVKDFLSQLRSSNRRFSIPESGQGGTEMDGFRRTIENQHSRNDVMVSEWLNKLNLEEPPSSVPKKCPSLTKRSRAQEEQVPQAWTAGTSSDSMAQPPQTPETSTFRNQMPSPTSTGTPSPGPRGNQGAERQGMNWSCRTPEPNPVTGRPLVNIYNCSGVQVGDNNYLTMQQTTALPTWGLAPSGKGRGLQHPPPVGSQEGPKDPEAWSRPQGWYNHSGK
Experimental: as §1

[9] = target: RIPK4 (Homo sapiens, UniProt P57078); assay: Kinase IC50 assay (Eurofins); type: biochemical
Sequence of RIPK4 (P57078 whole entry): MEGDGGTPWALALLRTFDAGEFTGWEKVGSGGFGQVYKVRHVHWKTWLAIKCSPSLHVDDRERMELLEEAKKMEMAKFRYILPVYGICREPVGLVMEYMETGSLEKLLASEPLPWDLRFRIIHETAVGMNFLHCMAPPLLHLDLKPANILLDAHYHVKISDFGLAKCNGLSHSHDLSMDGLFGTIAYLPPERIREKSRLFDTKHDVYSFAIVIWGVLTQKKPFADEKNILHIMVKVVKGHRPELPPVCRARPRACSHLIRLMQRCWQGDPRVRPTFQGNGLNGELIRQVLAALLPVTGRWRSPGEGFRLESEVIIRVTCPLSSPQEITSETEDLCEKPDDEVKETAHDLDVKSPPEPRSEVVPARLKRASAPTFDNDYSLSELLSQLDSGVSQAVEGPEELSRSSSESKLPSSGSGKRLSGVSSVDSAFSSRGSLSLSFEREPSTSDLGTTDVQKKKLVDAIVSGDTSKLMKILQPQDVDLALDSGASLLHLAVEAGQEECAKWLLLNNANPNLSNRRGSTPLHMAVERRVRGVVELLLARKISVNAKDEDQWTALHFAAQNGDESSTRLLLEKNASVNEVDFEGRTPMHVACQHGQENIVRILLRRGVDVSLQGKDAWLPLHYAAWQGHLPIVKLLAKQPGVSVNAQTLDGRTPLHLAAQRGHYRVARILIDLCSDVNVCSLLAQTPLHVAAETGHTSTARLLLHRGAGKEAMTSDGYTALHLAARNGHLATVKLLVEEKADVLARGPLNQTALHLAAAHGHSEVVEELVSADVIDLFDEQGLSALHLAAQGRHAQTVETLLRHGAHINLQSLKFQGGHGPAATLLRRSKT
Experimental: as §1

[10] = C57B6, mouse, in vivo

Work on `CC(C)C(=O)Nc1nc2cc(-c3ccc4c(c3)c(C(=O)NC(C)c3ccccc3)cn4C)ccn2n1` (stereo not drawn) [RI-962] yielded an activity at 0.001 µM ([1]; 1 nM) of 82.5%, an activity at 0.003 µM ([1]; 3 nM) of 95% and an activity at 0.01 µM ([1]; 10 nM) of 80.5%. It also gave an activity at 0.03 µM ([1]; 30 nM) of 60.5%, an activity at 0.1 µM ([1]; 100 nM) of 17.5% and an activity at 0.3 µM ([1]; 300 nM) of -2%. For the same molecule, the activity at 1 µM ([1]; 1000 nM) was 11.5%, the activity at 3 µM ([1]; 3000 nM) was 3.5% and the activity at 10 µM ([1]; 10 µM, read-out: Activity (%), RIPK1(h)) was 0%. It also gave an activity at 10 µM ([1]; 10000 nM, read-out: Activity (%) Average) of -3.5%, an IC50 ([1]; 33P-labeled ATP assay, read-out: IC50) of 35 nM and a viability at 56 pM ([2]; 0.000056 μM) of 20.2%. For the same molecule, the viability at 0.000169 µM ([2]; 0.000169 μM) was 21.7%, the viability at 0.000508 µM ([2]; 0.000508 μM) was 21.7% and the viability at 0.001524 µM ([2]; 0.001524 μM) was 23.4%. The viability at 0.004572 µM ([2]; 0.004572 μM) was 36.3%, the viability at 0.013717 µM ([2]; 0.013717 μM) was 78.8% and the viability at 0.041152 µM ([2]; 0.041152 μM) was 96.7%. It also gave a viability at 0.123457 µM ([2]; 0.123457 μM) of 109%, a viability at 0.37037 µM ([2]; 0.370370 μM) of 110% and a viability at 1.11111 µM ([2]; 1.111111 μM) of 107%. The viability at 3.33333 µM ([2]; 3.333333 μM) was 109%, the viability at 10 µM ([2]; 10.000000 μM) was 109% and the EC50 ([2]; HT29 treated with TSZ, 24 h, read-out: EC50) was 10 nM. It also gave a viability at 0.000169 µM ([3]; 0.000169 μM + TSZ, read-out: Cell Viability (%) Average) of 34.3%, a viability at 0.000508 µM ([3]; 0.000508 μM + TSZ, read-out: Cell Viability (%) Average) of 38.1% and a viability at 0.001524 µM ([3]; 0.001524 μM + TSZ, read-out: Cell Viability (%) Average) of 41.2%. For the same molecule, the viability at 0.004572 µM ([3]; 0.004572 μM + TSZ, read-out: Cell Viability (%) Average) was 64.8%, the viability at 0.013717 µM ([3]; 0.013717 μM + TSZ, read-out: Cell Viability (%) Average) was 108% and the viability at 0.041152 µM ([3]; 0.041152 μM + TSZ, read-out: Cell Viability (%) Average) was 109%. The viability at 0.123457 µM ([3]; 0.123457 μM + TSZ, read-out: Cell Viability (%) Average) was 110%, the viability at 0.37037 µM ([3]; 0.370370 μM + TSZ, read-out: Cell Viability (%) Average) was 113% and the viability at 1.11111 µM ([3]; 1.111111 μM + TSZ, read-out: Cell Viability (%) Average) was 102%. The EC50 ([3]; HT29-vector, TSZ) was 4.2 ± 0.2 nM, the “concentration of IL-1β” value ([4]; 6 h after TNFα) was “remarkably reduced” and the “IL-1β” value ([4]; serum 6 h after TNFα, animals 1-4) was 95.48 pg/mL and 91.16 pg/mL and 77.29 pg/mL and 76.39 pg/mL. For the same molecule, the “concentration of IL-6” value ([5]; 40 mg/kg i.p., 6 h after TNFα) was “remarkably reduced”, the IL-6 ([5]; Figure 8d, individual replicates 1-4) was 652.9 pg/mL and 1655 pg/mL and 2421 pg/mL and 1071 pg/mL and the “content of TNFα in cultured colonic tissue supernatants” value ([6]; 40 mg/kg i.p., day 7) was “substantially reduced”. The TNFα ([6]; Figure 9g, individual replicates 1-3) was 139.9 pg/mL and 111.6 pg/mL and 109.1 pg/mL, the “content of IL-6 in cultured colonic tissue supernatants” value ([7]; 40 mg/kg i.p., day 7) was “substantially reduced” and the IL-6 ([7]; Figure 9i, individual replicates 1-3) was 994.1 pg/mL and 876.1 pg/mL and 967.8 pg/mL. For the same molecule, the IC50 [8] was greater than 10000 nM, the IC50 [9] was greater than 10000 nM and the doses well tolerated [10] was “up to 250 mg/kg”.
